The source made the active and inactive calls.
Key:
[1] = cells; format: functional, cell-based
[2] = cells; format: functional, cell-based; remark: listed apart in the source
[3] = molecular target: Nuclear receptor subfamily 5 group A member 2 (Homo sapiens, UniProt O00482); format: functional, cell-based;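 also: HEK293T cells transfected with LRH-1 and a StAR promoter luciferase reporter; potency for inhibitors that lower LRH-1 driven reporter light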
[4] = molecular target: Steroidogenic factor 1 (Homo sapiens, UniProt Q13285); assay: Counterscreen for inverse agonists of the liver receptor homolog-1 (LRH-1; NR5A2): Luminescence-based cell-based high throughput dose response assay to identify inverse agonists of the Steroidogenic Factor 1 Nuclear Receptor (SF1; NR5A1).; format: functional
Chain of Steroidogenic factor 1 (Q13285 whole entry): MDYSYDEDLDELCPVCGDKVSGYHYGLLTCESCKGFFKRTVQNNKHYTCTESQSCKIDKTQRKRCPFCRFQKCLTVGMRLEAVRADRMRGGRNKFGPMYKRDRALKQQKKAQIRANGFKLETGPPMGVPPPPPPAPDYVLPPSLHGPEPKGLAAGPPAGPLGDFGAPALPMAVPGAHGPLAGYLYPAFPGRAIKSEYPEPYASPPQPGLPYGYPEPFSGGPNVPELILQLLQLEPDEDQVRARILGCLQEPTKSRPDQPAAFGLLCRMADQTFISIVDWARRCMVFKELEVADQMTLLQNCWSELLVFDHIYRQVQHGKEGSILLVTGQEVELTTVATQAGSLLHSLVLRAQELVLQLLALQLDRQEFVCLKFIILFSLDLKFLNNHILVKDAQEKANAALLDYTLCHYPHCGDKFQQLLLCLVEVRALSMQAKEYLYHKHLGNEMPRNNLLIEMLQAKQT

[5] = StAR promoter reporter inhibition counter-screen, dose response, counter-screen for LRH-1 inverse agonist project, cell-based, luminescence, luciferase reporter (AID 651969); format: functional
[6] = molecular target: T1, Carboxy-terminal domain RNA polymerase II polypeptide A small phosphatase 1 (Homo sapiens, UniProt Q9GZU7); assay: inhibitors of CTDSP1, concentration-response testing, biochemical assay, absorbance-based, actives from ultra-high-throughput screening (AID 540297); format: functional
T1 sequence (Q9GZU7 whole entry): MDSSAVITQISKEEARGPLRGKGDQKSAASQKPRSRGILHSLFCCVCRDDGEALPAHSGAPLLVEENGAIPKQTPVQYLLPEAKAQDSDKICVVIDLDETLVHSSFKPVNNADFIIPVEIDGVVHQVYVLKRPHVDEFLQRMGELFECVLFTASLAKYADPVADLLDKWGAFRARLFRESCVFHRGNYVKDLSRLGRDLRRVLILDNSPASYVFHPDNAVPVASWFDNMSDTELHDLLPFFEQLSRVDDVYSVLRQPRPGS

[7] = molecular target: T2, Small ubiquitin-related modifier 2 (Homo sapiens, UniProt P61956); assay: SUMO2–SIM peptide binding inhibitors, dose response, selectivity assay for SUMO1 interaction inhibitor project, biochemical, fluorescence polarization, uHTS hits (AID 624385); format: functional; conditions: read-out: IC50_Mean
T2 sequence (P61956 whole entry): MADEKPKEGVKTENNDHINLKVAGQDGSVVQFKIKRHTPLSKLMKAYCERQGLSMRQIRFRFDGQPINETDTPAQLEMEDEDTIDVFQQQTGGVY

[8] = molecular target: T3, Small ubiquitin-related modifier 1 (Homo sapiens, UniProt P63165); assay: inhibitors of SUMO1 peptide binding, dose response, biochemical, fluorescence polarization, uHTS hits (AID 624382); format: functional; conditions: read-out: IC50_Mean
T3 sequence (P63165 whole entry): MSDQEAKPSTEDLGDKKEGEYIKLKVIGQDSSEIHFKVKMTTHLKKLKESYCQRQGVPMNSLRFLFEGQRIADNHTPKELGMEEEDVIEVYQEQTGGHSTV

[9] = molecular target: T4, Probable nicotinate-nucleotide adenylyltransferase (Staphylococcus aureus (strain N315), UniProt P65502); format: functional, Staphylococcus aureus subsp. aureus N315;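 as to IC50 Mean: confirmatory dose-response retesting of NadD inhibitor hits first found in an ultra-high-throughput screen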
T4 sequence (P65502 whole entry): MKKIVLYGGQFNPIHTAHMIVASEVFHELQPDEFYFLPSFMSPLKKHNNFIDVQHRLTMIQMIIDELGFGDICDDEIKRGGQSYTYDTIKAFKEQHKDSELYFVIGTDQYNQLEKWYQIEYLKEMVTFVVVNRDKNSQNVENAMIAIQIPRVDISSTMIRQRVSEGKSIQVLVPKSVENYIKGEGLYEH

[10] = molecular target: T4, Probable nicotinate-nucleotide adenylyltransferase; format: functional, Staphylococcus aureus subsp. aureus N315; conditions: read-out: IC50_Mean
[11] = molecular target: T2, Small ubiquitin-related modifier 2; assay: inhibitors of SUMO2 protein-protein interaction, dose response, selectivity assay for SUMO1 interaction inhibitor project, biochemical, FRET, human SUMO2, uHTS hits (AID 624384); format: functional; conditions: read-out: IC50_Mean
[12] = molecular target: T3, Small ubiquitin-related modifier 1; assay: inhibitors of SUMO1 partner interactions, dose response, biochemical, FRET (AID 624383); format: functional; conditions: read-out: IC50_Mean
[13] = molecular target: T5, Heat shock factor protein 1 (Mus musculus, UniProt P38532); assay: HSF1 potentiators in luciferase reporter cells, confirmation, cell-based, NIH3T3, luminescence, dose retest (AID 435004); format: functional;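 also: stress induced by proteasome inhibitor MG132 added 30 min after compound; luciferase reporter driven by HSF1 response element in NIH3T3 cells; actives raise luminescence as potentiators of the MG132 stress response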
T5 sequence (P38532 whole entry): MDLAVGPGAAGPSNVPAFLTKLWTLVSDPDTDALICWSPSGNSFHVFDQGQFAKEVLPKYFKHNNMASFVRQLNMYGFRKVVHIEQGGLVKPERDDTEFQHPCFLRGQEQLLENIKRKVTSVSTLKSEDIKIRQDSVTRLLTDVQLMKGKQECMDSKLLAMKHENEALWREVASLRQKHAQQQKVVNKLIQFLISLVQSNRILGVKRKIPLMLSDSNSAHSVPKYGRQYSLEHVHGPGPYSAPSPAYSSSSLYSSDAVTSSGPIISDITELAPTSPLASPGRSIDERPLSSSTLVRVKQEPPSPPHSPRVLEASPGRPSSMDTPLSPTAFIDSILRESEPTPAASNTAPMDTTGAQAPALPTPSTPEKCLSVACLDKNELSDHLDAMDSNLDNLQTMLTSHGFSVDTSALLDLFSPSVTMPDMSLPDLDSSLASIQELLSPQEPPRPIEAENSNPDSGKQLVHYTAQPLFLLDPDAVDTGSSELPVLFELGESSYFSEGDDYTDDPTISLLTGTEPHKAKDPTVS

[14] = molecular target: T6, Replicative DNA helicase DnaB (Mycobacterium tuberculosis, UniProt P9WMR3); assay: DnaB intein splicing inhibitors, dose response, biochemical, cell-free fluorescence (AID 449749); format: functional
T6 sequence (P9WMR3 whole entry): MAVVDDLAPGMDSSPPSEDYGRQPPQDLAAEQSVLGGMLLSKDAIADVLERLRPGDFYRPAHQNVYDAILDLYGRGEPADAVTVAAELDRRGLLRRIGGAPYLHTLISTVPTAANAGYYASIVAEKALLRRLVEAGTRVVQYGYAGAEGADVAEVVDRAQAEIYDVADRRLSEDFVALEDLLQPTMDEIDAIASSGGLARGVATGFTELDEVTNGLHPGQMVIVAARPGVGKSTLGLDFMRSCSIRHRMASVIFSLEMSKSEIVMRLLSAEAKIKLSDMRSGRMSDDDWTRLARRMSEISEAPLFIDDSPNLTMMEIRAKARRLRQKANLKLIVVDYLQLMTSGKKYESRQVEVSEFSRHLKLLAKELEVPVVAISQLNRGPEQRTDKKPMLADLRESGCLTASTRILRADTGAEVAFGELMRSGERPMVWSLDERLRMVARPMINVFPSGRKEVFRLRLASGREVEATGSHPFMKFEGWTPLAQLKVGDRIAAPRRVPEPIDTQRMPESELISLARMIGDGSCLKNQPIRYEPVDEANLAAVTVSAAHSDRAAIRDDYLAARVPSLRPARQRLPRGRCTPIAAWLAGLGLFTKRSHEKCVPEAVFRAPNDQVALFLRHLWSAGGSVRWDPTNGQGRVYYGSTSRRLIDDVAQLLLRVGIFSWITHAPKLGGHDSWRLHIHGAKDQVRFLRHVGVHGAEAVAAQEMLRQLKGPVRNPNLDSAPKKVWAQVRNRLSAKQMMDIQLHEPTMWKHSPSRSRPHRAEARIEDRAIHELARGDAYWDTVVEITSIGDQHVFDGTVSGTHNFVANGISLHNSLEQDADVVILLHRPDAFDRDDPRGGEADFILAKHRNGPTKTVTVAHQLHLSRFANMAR

[15] = molecular target: T7, Protein RecA (Mycobacterium tuberculosis, UniProt P9WHJ3); assay: Fluorescence Cell-Free Homogeneous Dose Retest to Identify Inhibitors of RecA-Intein Splicing Activity. [Related pubchem assays (depositor defined):AID2097, AID2223, AID489010, AID492950]; format: functional
T7 sequence (P9WHJ3 whole entry): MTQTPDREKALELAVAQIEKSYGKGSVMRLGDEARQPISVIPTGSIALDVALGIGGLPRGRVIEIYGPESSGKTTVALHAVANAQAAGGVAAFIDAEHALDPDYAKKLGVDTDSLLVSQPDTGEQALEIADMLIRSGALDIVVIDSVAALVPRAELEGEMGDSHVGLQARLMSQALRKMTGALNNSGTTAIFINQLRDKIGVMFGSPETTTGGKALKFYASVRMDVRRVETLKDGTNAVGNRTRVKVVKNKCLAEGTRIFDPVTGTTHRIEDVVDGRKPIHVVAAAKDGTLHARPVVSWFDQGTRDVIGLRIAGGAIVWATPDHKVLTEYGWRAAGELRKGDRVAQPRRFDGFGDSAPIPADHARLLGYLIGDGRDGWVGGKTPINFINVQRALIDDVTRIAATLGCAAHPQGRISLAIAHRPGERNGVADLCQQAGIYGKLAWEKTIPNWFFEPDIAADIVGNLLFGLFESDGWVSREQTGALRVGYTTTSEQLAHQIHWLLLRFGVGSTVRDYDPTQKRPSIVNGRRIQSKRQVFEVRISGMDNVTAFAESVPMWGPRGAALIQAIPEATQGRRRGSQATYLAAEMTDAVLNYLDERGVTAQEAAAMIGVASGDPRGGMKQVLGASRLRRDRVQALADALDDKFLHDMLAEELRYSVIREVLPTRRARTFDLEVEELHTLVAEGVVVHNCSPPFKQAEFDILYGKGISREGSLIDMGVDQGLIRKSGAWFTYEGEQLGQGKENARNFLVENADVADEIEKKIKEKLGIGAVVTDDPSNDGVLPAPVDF

[16] = molecular target: Melanocortin receptor 4 (Homo sapiens, UniProt P32245); assay: MC4R antagonist potency on cAMP, dose response, cell-based, TR-FRET, biased antagonists (AID 602298); format: functional;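 also: antagonist potency against agonist-stimulated cAMP production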
Chain of Melanocortin receptor 4 (P32245 whole entry): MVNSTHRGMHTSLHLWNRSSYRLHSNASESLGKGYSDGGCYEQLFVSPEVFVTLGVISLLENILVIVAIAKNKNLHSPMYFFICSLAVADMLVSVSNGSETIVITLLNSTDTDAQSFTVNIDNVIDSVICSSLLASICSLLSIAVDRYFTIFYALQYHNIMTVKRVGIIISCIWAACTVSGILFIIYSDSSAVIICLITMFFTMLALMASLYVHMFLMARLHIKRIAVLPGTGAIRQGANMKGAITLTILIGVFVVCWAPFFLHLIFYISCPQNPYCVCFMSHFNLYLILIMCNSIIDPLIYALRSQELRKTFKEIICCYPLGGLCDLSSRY

[17] = molecular target: T8, Polyadenylate-binding protein 1 (Homo sapiens, UniProt P11940); assay: PABP1 MLLE–PAM2 interaction inhibitors, dose response, miRNA deadenylation inhibitor project, biochemical, fluorescence polarization, Cy5-PAM2 peptide, secondary (AID 602260); format: functional; conditions: read-out: IC50_Mean
T8 sequence (P11940 whole entry): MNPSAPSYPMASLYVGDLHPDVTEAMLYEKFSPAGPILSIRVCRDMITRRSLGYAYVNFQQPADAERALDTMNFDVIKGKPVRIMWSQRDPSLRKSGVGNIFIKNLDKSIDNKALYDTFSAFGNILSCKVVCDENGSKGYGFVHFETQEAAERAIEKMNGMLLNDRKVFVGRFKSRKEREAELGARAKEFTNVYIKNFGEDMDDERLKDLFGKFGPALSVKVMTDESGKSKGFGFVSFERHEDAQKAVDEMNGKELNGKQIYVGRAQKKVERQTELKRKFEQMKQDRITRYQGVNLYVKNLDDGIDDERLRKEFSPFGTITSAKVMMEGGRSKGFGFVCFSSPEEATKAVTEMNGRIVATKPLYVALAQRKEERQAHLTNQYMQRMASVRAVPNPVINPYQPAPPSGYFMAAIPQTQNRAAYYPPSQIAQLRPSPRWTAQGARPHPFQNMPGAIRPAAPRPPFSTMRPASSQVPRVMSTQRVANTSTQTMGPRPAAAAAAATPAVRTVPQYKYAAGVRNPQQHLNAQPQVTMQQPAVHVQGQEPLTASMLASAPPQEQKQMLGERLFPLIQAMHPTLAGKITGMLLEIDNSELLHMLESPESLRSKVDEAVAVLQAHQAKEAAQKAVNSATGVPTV

[18] = molecular target: T8, Polyadenylate-binding protein 1; assay: PABP1 MLLE–PAM2 binding inhibitor potency, dose response, biochemical, fluorescence polarization, FITC-PAM2 peptide (AID 602259); format: functional; conditions: read-out: IC50_Mean
[19] = nonselective inhibitors of cellular cAMP signaling, dose response, counter-screen for MC4R biased antagonist project, cell-based, TR-FRET cAMP detection (AID 602305); format: functional;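 also: U2OS cells stimulated with forskolin near its EC80 as the cAMP inducer; potency is for inhibition of forskolin-stimulated cAMP signaling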
[20] = molecular target: SWI/SNF-related matrix-associated actin-dependent regulator of chromatin subfamily A member 2 (Homo sapiens, UniProt P51531); assay: Luminescence-based cell-based high throughput dose response assay to identify activators of the function of SWI/SNF related, matrix associated, actin dependent regulator of chromatin, subfamily a, member 2 (SMARCA2, BRM).; format: functional
Chain of SWI/SNF-related matrix-associated actin-dependent regulator of chromatin subfamily A member 2 (P51531 whole entry): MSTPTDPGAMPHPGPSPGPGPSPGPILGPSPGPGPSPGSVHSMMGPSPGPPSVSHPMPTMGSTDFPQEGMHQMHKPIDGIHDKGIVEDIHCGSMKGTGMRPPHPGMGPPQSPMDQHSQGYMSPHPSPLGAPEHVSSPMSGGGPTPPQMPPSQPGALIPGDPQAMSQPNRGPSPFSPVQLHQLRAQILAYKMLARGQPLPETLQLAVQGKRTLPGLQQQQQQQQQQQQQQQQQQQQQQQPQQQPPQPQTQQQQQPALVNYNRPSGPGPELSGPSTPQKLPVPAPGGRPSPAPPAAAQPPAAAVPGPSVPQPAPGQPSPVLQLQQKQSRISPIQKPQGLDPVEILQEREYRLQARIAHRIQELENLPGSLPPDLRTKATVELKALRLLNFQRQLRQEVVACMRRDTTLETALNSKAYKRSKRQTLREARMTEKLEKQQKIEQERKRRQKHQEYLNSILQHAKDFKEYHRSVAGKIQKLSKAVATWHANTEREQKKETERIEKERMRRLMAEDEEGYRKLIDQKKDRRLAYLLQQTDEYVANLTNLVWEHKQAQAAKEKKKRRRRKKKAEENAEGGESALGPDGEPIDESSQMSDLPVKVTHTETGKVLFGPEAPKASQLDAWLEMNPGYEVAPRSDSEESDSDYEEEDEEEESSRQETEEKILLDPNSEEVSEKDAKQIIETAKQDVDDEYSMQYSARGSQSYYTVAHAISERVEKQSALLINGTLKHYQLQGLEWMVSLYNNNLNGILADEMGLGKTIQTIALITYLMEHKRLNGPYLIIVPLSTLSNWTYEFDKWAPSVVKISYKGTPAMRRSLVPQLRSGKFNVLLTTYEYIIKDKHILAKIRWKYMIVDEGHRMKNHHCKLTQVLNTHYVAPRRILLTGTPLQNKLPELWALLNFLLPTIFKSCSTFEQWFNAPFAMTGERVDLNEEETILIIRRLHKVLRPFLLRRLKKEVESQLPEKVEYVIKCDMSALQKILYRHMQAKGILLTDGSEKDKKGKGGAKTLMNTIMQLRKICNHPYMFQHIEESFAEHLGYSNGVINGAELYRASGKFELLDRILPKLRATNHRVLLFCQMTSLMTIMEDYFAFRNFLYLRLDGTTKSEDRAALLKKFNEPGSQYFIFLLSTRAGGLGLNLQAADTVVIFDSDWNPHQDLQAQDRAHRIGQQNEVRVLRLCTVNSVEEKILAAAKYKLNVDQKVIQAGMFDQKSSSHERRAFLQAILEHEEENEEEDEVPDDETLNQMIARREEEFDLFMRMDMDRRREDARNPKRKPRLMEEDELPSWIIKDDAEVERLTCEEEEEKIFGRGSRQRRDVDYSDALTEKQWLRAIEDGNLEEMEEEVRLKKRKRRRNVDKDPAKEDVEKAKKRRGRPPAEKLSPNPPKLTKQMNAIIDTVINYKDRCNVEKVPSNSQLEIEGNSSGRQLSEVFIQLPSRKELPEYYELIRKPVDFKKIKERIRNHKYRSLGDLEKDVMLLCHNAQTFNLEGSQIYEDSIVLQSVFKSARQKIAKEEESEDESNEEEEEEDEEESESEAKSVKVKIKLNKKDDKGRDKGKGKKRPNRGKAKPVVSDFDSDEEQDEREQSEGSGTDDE

[21] = Counterscreen for activators of the function of SWI/SNF related, matrix associated, actin dependent regulator of chromatin, subfamily a, member 2 (SMARCA2, BRM): Luminescence-based cell-based high throughput dose response assay to identify non-selective compounds using the VP16 reporter assay.; format: functional
[22] = cells; format: functional, cell-based; remark: listed apart in the source
[23] = molecular target: T9, Nuclear receptor subfamily 0 group B member 1 (Homo sapiens, UniProt P51843); format: functional, cell-based;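 also: HEK293T cells transfected with SF-1 and DAX-1 plus StAR promoter luciferase reporter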
T9 sequence (P51843 whole entry): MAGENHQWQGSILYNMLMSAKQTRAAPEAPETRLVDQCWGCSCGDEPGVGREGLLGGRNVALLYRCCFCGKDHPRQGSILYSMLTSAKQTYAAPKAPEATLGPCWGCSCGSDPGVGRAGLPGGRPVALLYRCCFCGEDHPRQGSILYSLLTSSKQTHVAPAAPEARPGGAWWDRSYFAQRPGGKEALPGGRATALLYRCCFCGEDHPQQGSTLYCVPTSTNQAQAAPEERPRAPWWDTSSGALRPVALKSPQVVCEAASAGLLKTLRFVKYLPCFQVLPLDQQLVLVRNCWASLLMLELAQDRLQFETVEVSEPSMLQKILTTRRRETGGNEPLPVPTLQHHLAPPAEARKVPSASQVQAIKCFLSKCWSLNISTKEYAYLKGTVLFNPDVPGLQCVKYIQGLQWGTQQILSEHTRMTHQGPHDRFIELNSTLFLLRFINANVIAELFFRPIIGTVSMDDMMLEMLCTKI

Chain of Nuclear receptor subfamily 5 group A member 2 (O00482 whole entry): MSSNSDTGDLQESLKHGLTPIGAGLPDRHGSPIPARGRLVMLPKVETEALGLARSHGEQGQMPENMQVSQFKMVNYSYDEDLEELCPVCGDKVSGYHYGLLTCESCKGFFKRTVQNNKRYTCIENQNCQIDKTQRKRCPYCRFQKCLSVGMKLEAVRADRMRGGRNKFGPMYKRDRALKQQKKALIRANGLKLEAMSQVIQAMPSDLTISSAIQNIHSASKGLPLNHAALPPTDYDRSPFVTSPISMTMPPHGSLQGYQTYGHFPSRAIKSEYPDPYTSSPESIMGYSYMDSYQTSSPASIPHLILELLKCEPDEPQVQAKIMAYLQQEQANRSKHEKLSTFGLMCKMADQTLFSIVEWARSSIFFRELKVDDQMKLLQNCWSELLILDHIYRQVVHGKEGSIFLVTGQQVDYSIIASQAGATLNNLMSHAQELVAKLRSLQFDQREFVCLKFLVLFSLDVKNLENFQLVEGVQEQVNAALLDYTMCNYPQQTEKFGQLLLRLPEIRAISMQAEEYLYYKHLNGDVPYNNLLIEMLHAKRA

Question: With `COc1ccc(NC(=O)CSc2[nH]cnc3nncc2-3)cc1` as the compound, how does the EC50 [1] read?
Answer: Its EC50 is > 350 µM (not active).

Question: What about the EC50 [2] of the same compound?
Answer: The EC50 was > 350 µM (not active).

Question: And the IC50 [3]?
Answer: Its IC50 is 1.37 µM (active).

Question: What about the IC50 [4] of the same compound?
Answer: Its IC50 is 1.73 µM (active).

Question: And the IC50 [5]?
Answer: Its IC50 is 35.9 µM (inactive).

Question: Which results are given for `O=C1N=c2ccccc2=C1Nc1ccc(S(=O)(=O)Nc2nccs2)cc1`?
Answer: IC50 [6]: 4.2 µM (active); IC50 [7]: 9.54 µM (active); IC50 [8]: 11 µM (active); IC50 [9]: 5.32 µM (active); IC50 [10]: 15.5 µM (active); IC50 [11]: 46.1 µM (inactive); IC50 [12]: 51 µM (inactive)

Question: For `CC(=O)Nc1cccc(NC(=O)CSc2ncc(C(=O)Nc3ccccc3)c(=O)n2C)c1`, which EC50 [13] is on record?
Answer: Its EC50 is 12.8 µM (active).

Question: What about the AC50 [14] of the same compound?
Answer: The AC50 was 6.51 µM (active).

Question: What about the EC50 [15] of the same compound?
Answer: The EC50 was 1.61 µM (active).

Question: What about the IC50 [16] of the same compound?
Answer: Its IC50 is > 64.6 µM (inactive).

Question: What about the IC50 [17] of the same compound?
Answer: Its IC50 is > 66 µM (inactive).

Question: What about the IC50 [18] of the same compound?
Answer: The IC50 was > 66 µM (inactive).

Question: And the IC50 [19]?
Answer: Its IC50 is > 64.6 µM (inactive).

Question: And the EC50 [20]?
Answer: Its EC50 is > 91.1 µM (inactive).

Question: And the EC50 [21]?
Answer: Its EC50 is > 91.1 µM (inactive).

Question: Which IC50 [6] does the source give for `O=C(CCN1C(=O)/C(=C\C=C\c2ccccc2)SC1=S)Nc1cccc(C(=O)O)c1` here?
Answer: Its IC50 is 4.8 µM (active).

Question: And the IC50 [22]?
Answer: Its IC50 is > 67.5 µM (inactive).

Question: And the IC50 [23]?
Answer: The IC50 was > 67.5 µM (inactive).

Reference: ChEMBL document CHEMBL1201862, “PubChem BioAssay data set” (2004)
